Source: patent US7049455B2, “Process for producing shogaols and intermediates for the synthesis thereof” (Toagosei Co., Ltd., priority 2002, dated 2006)
“Also recorded” adds a separate entry of the source.

Test system: mushroom-derived tyrosinase
Experiment: inhibition of the activity of mushroom-derived tyrosinase, L-dopa as substrate
Type: biochemical
Conditions: L-dopa as a substrate, compared with arbutin (Tokyo Kasei Kogyo)
Text: A test of [6]-shogaol obtained in Example 5 about the inhibition of the activity of mushroom-derived tyrosinase was done, using L-dopa as a substrate.

Compound: CCCCC/C=C/C(=O)CCc1ccc(O)c(OC)c1 [[6]-shogaol]
- inhibition of tyrosinase activity: inhibited tyrosinase activity; also recorded: inhibitory activity at the same level as that of arbutin
